From ChEMBL document CHEMBL4354831, “Novel Cell-Penetrating Peptide Conjugated Proteasome Inhibitors: Anticancer and Antifungal Investigations” (J Med Chem, 2020)
pIC50: −log10 of the molar value. In brackets after ≈: the same amount, converted by molar mass. Activity calls are given as the source filed them. The calls are words filed in the database; no cut-off is given here. Peptide text beside a SMILES is read from it.

Columns and labels:
[1] = test system: HeLa; test: Antiproliferative activity against human HeLa cells assessed as reduction in cell viability after 48 hrs by MTT assay; type: functional, cell-based
[2] = test system: BE(2)-C; test: Antiproliferative activity against human BE(2)-C cells assessed as reduction in cell viability after 48 hrs by MTT assay; type: functional, cell-based
[3] = test system: HeLa; test: Antiproliferative activity against human HeLa cells assessed as reduction in cell viability at 1000 uM after 48 hrs by MTT assay relative to control; type: functional
[4] = test system: BE(2)-C; test: Antiproliferative activity against human BE(2)-C cells assessed as reduction in cell viability at 1000 uM after 48 hrs by MTT assay relative to control; type: functional
[5] = test system: HeLa; test: Induction of pore formation in human HeLa cell membrane at 2xIC50 after 12 hrs by SEM analysis; type: cell-based
[6] = test system: BE(2)-C; test: Induction of pore formation in human BE(2)-C cell membrane at 2xIC50 after 12 hrs by SEM analysis; type: functional, cell-based
[7] = test system: HeLa; test: Induction of membrane blebbing in human HeLa cells at 2xIC50 after 12 hrs by SEM analysis; type: cell-based; details: Cell membrane
[8] = test system: BE(2)-C; test: Induction of membrane blebbing in human BE(2)-C cells at 2xIC50 after 12 hrs by SEM analysis; type: cell-based; details: Cell membrane
[9] = test system: Candida albicans; test: Antifungal activity against Candida albicans SC5314 at 100 uM after 48 hrs; type: functional, organism-based
[10] = Selectivity ratio of IC50 for antiproliferative activity against human BE(2)-C cells to IC50 for antiproliferative activity against human HeLa cells after 48 hrs by MTT assay; type: functional
[11] = target: 20S proteasome; test: Inhibition of human 20S proteasome using Suc-LLVY-AMC as substrate measured every 5 mins for 120 mins by fluorescence based assay; type: protein-complex assay
[12] = test system: Candida albicans; test: Antifungal activity against Candida albicans SC5314 after 48 hrs; type: functional; details: SC5314, 48 h
[13] = test system: Candida albicans; test: Induction of pore formation in Candida albicans SC5314 membrane by SEM analysis; type: organism-based; details: Cell membrane
[14] = test system: Candida albicans; test: Induction of hyphal disruption in Candida albicans SC5314 by SEM analysis; type: organism-based; details: Hyphae

| Structure (SMILES) | pIC50 [1] | pIC50 [2] | inhibition at 1000 µM [3] [%] | inhibition at 1000 µM [4] [%] | Activity [5] | Activity [6] | Activity [7] | Activity [8] | Activity [9] | Ratio IC50 [10] | pIC50 [11] | MIC [12] [µM] | Activity [13] | Activity [14] |
| --- | --- | --- | --- | --- | --- | --- | --- | --- | --- | --- | --- | --- | --- | --- |
| CC(=O)N[C@@H](Cc1ccc(O)cc1)C(=O)NCC(=O)N[C@@H](CCCNC(=N)N)C(=O)N[C@@H](CCCCN)C(=O)N[C@@H](CCCCN)C(=O)N[C@@H](CCCNC(=N)N)C(=O)N[C@@H](CCCNC(=N)N)C(=O)N[C@@H](CCC(N)=O)C(=O)N[C@@H](CCCNC(=N)N)C(=O)N[C@@H](CCCNC(=N)N)C(=O)N[C@@H](CCCNC(=N)N)C(=O)O | 4.20 | 4.03 | 70 | 70 | inactive | inactive | inactive | inactive | inactive | – | – | – | – | – |
| CC(=O)N[C@@H](CC(C)C)C(=O)N[C@@H](CC(C)C)C(=O)N[C@H](C=O)CC(C)C (Ac-Leu-Leu-Leu-aldehyde) | 4.41 | 4.21 | – | – | – | – | – | – | – | 1.5 | 6.87 | > 100 | – | – |
| CC(=O)N[C@@H](Cc1ccc(O)cc1)C(=O)N[C@@H](CC(C)C)C(=O)N[C@@H](Cc1ccccc1)C(=O)N[C@H](C=O)CC(C)C (Ac-YLFL-aldehyde) | 4.53 | 4.36 | – | – | – | – | – | – | – | 1.5 | 8.19 | > 100 | – | – |
| C[C@@H]1[C@H](O)[C@@H](C)/C=C/C=C/C=C/C=C/C=C/C=C/C=C/[C@H](O[C@@H]2O[C@H](C)[C@@H](O)[C@H](N)[C@@H]2O)C[C@@H]2O[C@](O)(C[C@@H](O)C[C@@H](O)[C@H](O)CC[C@@H](O)C[C@@H](O)CC(=O)O[C@H]1C)C[C@H](O)[C@H]2C(=O)O [AMPHOTERICIN B] | – | – | – | – | – | – | – | – | – | – | – | 1.56 (≈ 1.44 µg/mL) | Active | inactive |
